Laboratory results taken from ChEMBL document CHEMBL4706559, “New indolylarylsulfone non-nucleoside reverse transcriptase inhibitors show low nanomolar inhibition of single and double HIV-1 mutant strains” (Eur J Med Chem, 2020).

Tested on: Human immunodeficiency virus 1
Test: Antiviral activity against HIV1 harboring RT K103N/Y181C double mutant infected in human MT4 cells assessed as protection against virus-induced cytopathic effect by MTT assay
Type: functional, organism-based
Conditions: Human immunodeficiency virus 1, MT4

| SMILES | EC50 |
| --- | --- |
| Cc1cc(C)cc(S(=O)(=O)c2c(C(=O)NCc3cc(O)ncn3)[nH]c3ccc(Cl)cc23)c1 | 14300 nM |
| Cc1cc(C)cc(S(=O)(=O)c2c(C(=O)NC(C)C(=O)NCc3ccccc3O)[nH]c3ccc(Cl)cc23)c1 (centres undefined) | 5240 nM |
| Cc1ccnc2c1NC(=O)c1cccnc1N2C1CC1 [NEVIRAPINE] | > 3760 nM |
| Cc1cc(C)cc(S(=O)(=O)c2c(C(N)=O)[nH]c3ccc(Cl)cc23)c1 | 650 nM |
| Cc1cc(C)cc(S(=O)(=O)c2c(C(=O)NCc3ccc(O)cc3)[nH]c3ccc(Cl)cc23)c1 | 704 nM |
| Cc1cc(C#N)cc(C)c1Oc1nc(Nc2ccc(C#N)cc2)nc(N)c1Br [ETRAVIRINE] | 4.6 nM |
| Cc1cc(C)cc(S(=O)(=O)c2c(C(=O)NCC(=O)NCc3cccc(O)c3)[nH]c3ccc(Cl)cc23)c1 | 3560 nM |

Tested on: Human immunodeficiency virus 1
Test: Antiviral activity against HIV1 harboring RT K103N mutant infected in human MT4 cells assessed as protection against virus-induced cytopathic effect by MTT assay
Type: functional, organism-based
Conditions: Human immunodeficiency virus 1, MT4

| SMILES | EC50 |
| --- | --- |
| Cc1cc(C)cc(S(=O)(=O)c2c(C(=O)NCc3cc(O)ncn3)[nH]c3ccc(Cl)cc23)c1 | < 0.7 nM |
| Cc1cc(C)cc(S(=O)(=O)c2c(C(=O)NC(C)C(=O)NCc3ccccc3O)[nH]c3ccc(Cl)cc23)c1 (centres undefined) | 37 nM |
| Cc1ccnc2c1NC(=O)c1cccnc1N2C1CC1 [NEVIRAPINE] | > 3760 nM |
| Cc1cc(C)cc(S(=O)(=O)c2c(C(=O)NCc3ccc(O)cc3)[nH]c3ccc(Cl)cc23)c1 | < 0.7 nM |
| Cc1cc(C#N)cc(C)c1Oc1nc(Nc2ccc(C#N)cc2)nc(N)c1Br [ETRAVIRINE] | 0.7 nM |
| Cc1cc(C)cc(S(=O)(=O)c2c(C(=O)NCC(=O)NCc3cccc(O)c3)[nH]c3ccc(Cl)cc23)c1 | 437 nM |

Tested on: Human immunodeficiency virus 1
Test: Antiviral activity against HIV1 harboring RT Y181C mutant infected in human MT4 cells assessed as protection against virus-induced cytopathic effect by MTT assay
Type: functional, organism-based
Conditions: Human immunodeficiency virus 1, MT4

| SMILES | EC50 |
| --- | --- |
| Cc1cc(C)cc(S(=O)(=O)c2c(C(=O)NCc3cc(O)ncn3)[nH]c3ccc(Cl)cc23)c1 | 0.7 nM |
| Cc1cc(C)cc(S(=O)(=O)c2c(C(=O)NC(C)C(=O)NCc3ccccc3O)[nH]c3ccc(Cl)cc23)c1 (centres undefined) | 41 nM |
| Cc1ccnc2c1NC(=O)c1cccnc1N2C1CC1 [NEVIRAPINE] | > 3760 nM |
| Cc1cc(C)cc(S(=O)(=O)c2c(C(=O)NCc3ccc(O)cc3)[nH]c3ccc(Cl)cc23)c1 | < 0.7 nM |
| Cc1cc(C#N)cc(C)c1Oc1nc(Nc2ccc(C#N)cc2)nc(N)c1Br [ETRAVIRINE] | 18 nM |
| Cc1cc(C)cc(S(=O)(=O)c2c(C(=O)NCC(=O)NCc3cccc(O)c3)[nH]c3ccc(Cl)cc23)c1 | 7.6 nM |

Molecular target: not listed separately
Test: Inhibition of RNA-dependent DNA polymerase activity of recombinant HIV-1 p66/p51 reverse transcriptase Y188L mutant assessed as inhibition of [3H]dTTP incorporation using poly(rA)/oligo(dT) as templates incubated for 15 mins by MicroBeta scintillation counting method
Design: species or system Human immunodeficiency virus 1
Conditions: not given

| SMILES | IC50 |
| --- | --- |
| Cc1cc(C)cc(S(=O)(=O)c2c(C(=O)NCc3ccc(O)cc3)[nH]c3ccc(Cl)cc23)c1 | 50 nM |
| Cc1cc(C#N)cc(C)c1Oc1nc(Nc2ccc(C#N)cc2)nc(N)c1Br [ETRAVIRINE] | 164 nM |

Tested on: Human immunodeficiency virus 1
Test: Resistance index, ratio of EC50 for antiviral activity against HIV1 harboring RT Y188L mutant infected in human MT4 cells to EC50 for antiviral activity against HIV1 NL4-3 infected in human MT4 cells
Type: functional
Conditions: not given

| SMILES | Ratio EC50 |
| --- | --- |
| Cc1cc(C)cc(S(=O)(=O)c2c(C(=O)NCc3cc(O)ncn3)[nH]c3ccc(Cl)cc23)c1 | >151 |
| Cc1cc(C)cc(S(=O)(=O)c2c(C(=O)NC(C)C(=O)NCc3ccccc3O)[nH]c3ccc(Cl)cc23)c1 (centres undefined) | 10925 |
| Cc1cc(C)cc(S(=O)(=O)c2c(C(=O)NCc3ccc(O)cc3)[nH]c3ccc(Cl)cc23)c1 | >944 |
| Cc1cc(C)cc(S(=O)(=O)c2c(C(=O)NCC(=O)NCc3cccc(O)c3)[nH]c3ccc(Cl)cc23)c1 | >6590 |

Tested on: Human immunodeficiency virus 1
Test: Resistance index, ratio of EC50 for antiviral activity against HIV1 harboring RT K103N/Y181C double mutant infected in human MT4 cells to EC50 for antiviral activity against HIV1 NL4-3 infected in human MT4 cells
Type: functional
Conditions: not given

| SMILES | Ratio EC50 |
| --- | --- |
| Cc1cc(C)cc(S(=O)(=O)c2c(C(=O)NCc3cc(O)ncn3)[nH]c3ccc(Cl)cc23)c1 | >20385 |
| Cc1cc(C)cc(S(=O)(=O)c2c(C(=O)NC(C)C(=O)NCc3ccccc3O)[nH]c3ccc(Cl)cc23)c1 (centres undefined) | >8733 |
| Cc1cc(C)cc(S(=O)(=O)c2c(C(=O)NCc3ccc(O)cc3)[nH]c3ccc(Cl)cc23)c1 | >1006 |
| Cc1cc(C)cc(S(=O)(=O)c2c(C(=O)NCC(=O)NCc3cccc(O)c3)[nH]c3ccc(Cl)cc23)c1 | >5925 |

Molecular target: Human immunodeficiency virus type 1 reverse transcriptase (Human immunodeficiency virus 1, UniProt Q72547)
Test: Inhibition of RNA-dependent DNA polymerase activity of wild type recombinant HIV-1 His-tagged p66/p51 reverse transcriptase assessed as inhibition of [3H]dTTP incorporation using poly(rA)/oligo(dT) as templates incubated for 15 mins by MicroBeta scintillation counting method
Conditions: not given

| SMILES | IC50 |
| --- | --- |
| Cc1cc(C)cc(S(=O)(=O)c2c(C(=O)NCc3ccc(O)cc3)[nH]c3ccc(Cl)cc23)c1 | 61 nM |

Tested on: Human immunodeficiency virus 1
Test: Resistance index, ratio of EC50 for antiviral activity against HIV1 harboring RT K103N mutant infected in human MT4 cells to EC50 for antiviral activity against HIV1 NL4-3 infected in human MT4 cells
Type: functional
Conditions: not given

| SMILES | Ratio EC50 |
| --- | --- |
| Cc1cc(C)cc(S(=O)(=O)c2c(C(=O)NC(C)C(=O)NCc3ccccc3O)[nH]c3ccc(Cl)cc23)c1 (centres undefined) | >62 |
| Cc1cc(C)cc(S(=O)(=O)c2c(C(=O)NCC(=O)NCc3cccc(O)c3)[nH]c3ccc(Cl)cc23)c1 | >728 |

Molecular target: not listed separately
Test: Inhibition of RNA-dependent DNA polymerase activity of recombinant HIV-1 p66/p51 reverse transcriptase K103N/Y181C mutant assessed as inhibition of [3H]dTTP incorporation using poly(rA)/oligo(dT) as templates incubated for 15 mins by MicroBeta scintillation counting method
Design: species or system Human immunodeficiency virus 1
Conditions: not given

| SMILES | IC50 |
| --- | --- |
| Cc1cc(C)cc(S(=O)(=O)c2c(C(=O)NCc3ccc(O)cc3)[nH]c3ccc(Cl)cc23)c1 | 628 nM |
| Cc1cc(C#N)cc(C)c1Oc1nc(Nc2ccc(C#N)cc2)nc(N)c1Br [ETRAVIRINE] | 97 nM |

Tested on: Human immunodeficiency virus 1
Test: Resistance index, ratio of EC50 for antiviral activity against HIV1 harboring RT Y181C mutant infected in human MT4 cells to EC50 for antiviral activity against HIV1 NL4-3 infected in human MT4 cells
Type: functional
Conditions: not given

| SMILES | Ratio EC50 |
| --- | --- |
| Cc1cc(C)cc(S(=O)(=O)c2c(C(=O)NC(C)C(=O)NCc3ccccc3O)[nH]c3ccc(Cl)cc23)c1 (centres undefined) | >68 |
| Cc1cc(C)cc(S(=O)(=O)c2c(C(=O)NCC(=O)NCc3cccc(O)c3)[nH]c3ccc(Cl)cc23)c1 | >13 |

Tested on: not listed separately
Test: Cytotoxicity against human MT-4 cells assessed as reduction in cell viability by MTT assay
Type: cell-based, MT4
Conditions: not given

| SMILES | CC50 |
| --- | --- |
| Cc1cc(C)cc(S(=O)(=O)c2c(C(=O)NCc3cc(O)ncn3)[nH]c3ccc(Cl)cc23)c1 | > 53100 nM |
| Cc1cc(C)cc(S(=O)(=O)c2c(C(=O)NC(C)C(=O)NCc3ccccc3O)[nH]c3ccc(Cl)cc23)c1 (centres undefined) | 14400 nM |
| Cc1ccnc2c1NC(=O)c1cccnc1N2C1CC1 [NEVIRAPINE] | > 18800 nM |
| Cc1cc(C)cc(S(=O)(=O)c2c(C(=O)NCc3ccc(O)cc3)[nH]c3ccc(Cl)cc23)c1 | 6250 nM |
| Cc1cc(C#N)cc(C)c1Oc1nc(Nc2ccc(C#N)cc2)nc(N)c1Br [ETRAVIRINE] | > 23000 nM |
| Cc1cc(C)cc(S(=O)(=O)c2c(C(=O)NCC(=O)NCc3cccc(O)c3)[nH]c3ccc(Cl)cc23)c1 | > 47500 nM |

Tested on: not listed separately
Test: Selectivity ratio of CC50 for human MT4 cells to EC50 for antiviral activity against HIV-1 NL4-3 infected in human MT4 cells
Type: toxicity, cell-based
Conditions: read-out: Ratio CC50/EC50

| SMILES | selectivity ratio |
| --- | --- |
| Cc1cc(C)cc(S(=O)(=O)c2c(C(=O)NCc3cc(O)ncn3)[nH]c3ccc(Cl)cc23)c1 | > 75800 |
| Cc1cc(C)cc(S(=O)(=O)c2c(C(=O)NC(C)C(=O)NCc3ccccc3O)[nH]c3ccc(Cl)cc23)c1 (centres undefined) | > 23900 |
| Cc1cc(C)cc(S(=O)(=O)c2c(C(=O)NCc3ccc(O)cc3)[nH]c3ccc(Cl)cc23)c1 | > 8930 |
| Cc1cc(C)cc(S(=O)(=O)c2c(C(=O)NCC(=O)NCc3cccc(O)c3)[nH]c3ccc(Cl)cc23)c1 | > 79200 |

Tested on: Human immunodeficiency virus 1
Test: Antiviral activity against HIV-1 NL4-3 infected in human MT-4 cells assessed as virus induced cytopathic effect by MTT assay
Type: functional, organism-based
Conditions: Human immunodeficiency virus 1, NL4-3, MT4

| SMILES | EC50 |
| --- | --- |
| Cc1cc(C)cc(S(=O)(=O)c2c(C(=O)NCc3cc(O)ncn3)[nH]c3ccc(Cl)cc23)c1 | < 0.7 nM |
| Cc1cc(C)cc(S(=O)(=O)c2c(C(=O)NC(C)C(=O)NCc3ccccc3O)[nH]c3ccc(Cl)cc23)c1 (centres undefined) | < 0.6 nM |
| Cc1ccnc2c1NC(=O)c1cccnc1N2C1CC1 [NEVIRAPINE] | 112 nM |
| Cc1cc(C)cc(S(=O)(=O)c2c(C(=O)NCc3ccc(O)cc3)[nH]c3ccc(Cl)cc23)c1 | < 0.7 nM |
| Cc1cc(C#N)cc(C)c1Oc1nc(Nc2ccc(C#N)cc2)nc(N)c1Br [ETRAVIRINE] | 16.1 nM |
| Cc1cc(C)cc(S(=O)(=O)c2c(C(=O)NCC(=O)NCc3cccc(O)c3)[nH]c3ccc(Cl)cc23)c1 | < 0.6 nM |

Tested on: Human immunodeficiency virus 1
Test: Antiviral activity against HIV1 harboring RT Y188L mutant infected in human MT4 cells assessed as protection against virus-induced cytopathic effect by MTT assay
Type: functional, organism-based
Conditions: Human immunodeficiency virus 1, MT4

| SMILES | EC50 |
| --- | --- |
| Cc1cc(C)cc(S(=O)(=O)c2c(C(=O)NCc3cc(O)ncn3)[nH]c3ccc(Cl)cc23)c1 | 106 nM |
| Cc1cc(C)cc(S(=O)(=O)c2c(C(=O)NC(C)C(=O)NCc3ccccc3O)[nH]c3ccc(Cl)cc23)c1 (centres undefined) | 6560 nM |
| Cc1ccnc2c1NC(=O)c1cccnc1N2C1CC1 [NEVIRAPINE] | > 3760 nM |
| Cc1cc(C)cc(S(=O)(=O)c2c(C(=O)NCc3ccc(O)cc3)[nH]c3ccc(Cl)cc23)c1 | 661 nM |
| Cc1cc(C#N)cc(C)c1Oc1nc(Nc2ccc(C#N)cc2)nc(N)c1Br [ETRAVIRINE] | 16 nM |
| Cc1cc(C)cc(S(=O)(=O)c2c(C(=O)NCC(=O)NCc3cccc(O)c3)[nH]c3ccc(Cl)cc23)c1 | 3950 nM |

Molecular target: Human immunodeficiency virus type 1 reverse transcriptase (Human immunodeficiency virus 1, UniProt Q72547, K103N)
Test: Inhibition of RNA-dependent DNA polymerase activity of recombinant HIV-1 p66/p51 reverse transcriptase K103N mutant assessed as inhibition of [3H]dTTP incorporation using poly(rA)/oligo(dT) as templates incubated for 15 mins by MicroBeta scintillation counting method
Conditions: not given

| SMILES | IC50 |
| --- | --- |
| Cc1cc(C)cc(S(=O)(=O)c2c(C(=O)NCc3ccc(O)cc3)[nH]c3ccc(Cl)cc23)c1 | 45 nM |
